Results taken from patent US20050245399A1, “Pyrazole derivatives as herbicidal compositions containing them” (ISHIHARA SANGYO KAISHA, LTD., priority 2004, published 2005).

Columns and labels:
Format in all cases: in vivo
[1] = test system: barnyardgrass (Echinochloa crus-galli L.): ECHCG; test: Test Example 1 pre-emergence herbicidal activity, ECHCG; settings: Rate 63 g a.i./ha, visually observed 20th to 23rd day after application
Excerpt: (§1) Upland field soil was put into a 1/170,000 ha pot, and seeds of various plants {1. barnyardgrass (Echinochloa crus-galli L.): ECHCG, 2. crabgrass (Digitaria sanguinalis L.): DIGSA, 3. green foxtail (Setaria viridis L.): SETVI, 4. redroot pigweed (Amaranthus retroflexus L.): AMARE, 5. prickly sida (Sida spinosa L.): SEDSP, 6. velvetleaf (Abutilon theophrasti): ABUTH, 7. common cocklebur (Xanthium strumarium L.): XANST, 8. rice (Oryza sativa L.): ORYSA, 9. wheat (Triticum aestivum L.): TRZAX, 10. corn (Zea mays L.): ZEAMX, 11. soybean (Glycine max Merr.): GLXMA} were sown. Then, one day after the sowing, a wettable powder or emulsifiable concentrate having the compound of the present invention formulated in accordance with a usual formulation method, was weighed so that the active ingredient would be a predetermined amount and diluted with water in an amount of 500 L/ha. The herbicide adjusted was applied by a small size sprayer for preemergence treatment. On the 20th to 23rd day after the application of the herbicide, the growth of the respective plants was visually observed, and the herbicidal effects were evaluated by growth controlling degrees (%) ranging from 0 (equivalent to the untreated control) to 100 (complete kill), whereby the results shown in Table 4, were obtained. Compound Nos. in Table 4 correspond to Compound Nos. in Table 1 and 2 given hereinbefore.

[2] = test system: crabgrass (Digitaria sanguinalis L.): DIGSA; test: Test Example 1 pre-emergence herbicidal activity, DIGSA; settings: Rate 63 g a.i./ha, visually observed 20th to 23rd day after application
Excerpt: as §1

[3] = test system: green foxtail (Setaria viridis L.): SETVI; test: Test Example 1 pre-emergence herbicidal activity, SETVI; settings: Rate 63 g a.i./ha, visually observed 20th to 23rd day after application
Excerpt: as §1

[4] = test system: redroot pigweed (Amaranthus retroflexus L.): AMARE; test: Test Example 1 pre-emergence herbicidal activity, AMARE; settings: Rate 63 g a.i./ha, visually observed 20th to 23rd day after application
Excerpt: as §1

[5] = test system: prickly sida (Sida spinosa L.): SEDSP; test: Test Example 1 pre-emergence herbicidal activity, SIDSP; settings: Rate 63 g a.i./ha, visually observed 20th to 23rd day after application
Excerpt: as §1

[6] = test system: velvetleaf (Abutilon theophrasti): ABUTH; test: Test Example 1 pre-emergence herbicidal activity, ABUTH; settings: Rate 63 g a.i./ha, visually observed 20th to 23rd day after application
Excerpt: as §1

[7] = test system: rice (Oryza sativa L.): ORYSA; test: Test Example 1 pre-emergence herbicidal activity, ORYSA; settings: Rate 63 g a.i./ha, visually observed 20th to 23rd day after application
Excerpt: as §1

[8] = test system: wheat (Triticum aestivum L.): TRZAX; test: Test Example 1 pre-emergence herbicidal activity, TRZAX; settings: Rate 63 g a.i./ha, visually observed 20th to 23rd day after application
Excerpt: as §1

[9] = test system: corn (Zea mays L.): ZEAMX; test: Test Example 1 pre-emergence herbicidal activity, ZEAMX; settings: Rate 63 g a.i./ha, visually observed 20th to 23rd day after application
Excerpt: as §1

[10] = test system: soybean (Glycine max Merr.): GLXMA; test: Test Example 1 pre-emergence herbicidal activity, GLXMA; settings: Rate 63 g a.i./ha, visually observed 20th to 23rd day after application
Excerpt: as §1

[11] = test system: barnyardgrass (Echinochloa crus-galli L.), ECHCG; test: Test Example 2 post-emergence (foliage treatment) herbicidal activity, ECHCG; settings: 63 g a.i./ha
Excerpt: (§2) Upland field soil was put into a 1/170,000 ha pot, and seeds of various plants were sown. Then, when the plants reached predetermined leaf stages {1. barnyardgrass (Echinochloa crus-galli L.), ECHCG: 1.1-2.1 leaf stage, 2. crabgrass (Digitaria sanguinalis L.), DIGSA: 1.0-2.0 leaf stage, 3. green foxtail (Setaria viridis L.), SETVI: 1.0-2.2 leaf stage, 4. redroot pigweed (Amaranthus retroflexus L.), AMARE: 0.1-1.5 leaf stage, 5. prickly sida (Sida spinosa L.), SIDSP: 0.1-0.6 leaf stage, 6. velvetleaf (Abutilon theophrasti), ABUTH: 0.1-0.6 leaf stage, 7. common cocklebur (Xanthium strumarium L.), XANST: 0.1 leaf stage, 8. rice (Oryza sativa L.), ORYSA; 1.0-2 leaf stage, 9. wheat (Triticum aestivum L.), TRZAX: 2.3-3.5 leaf stage, 10. corn (Zea mays L.), ZEAMXN 2.1-2.6 leaf stage, 11. soybean (Glycine max Merr.), GLXMA: primary leaf stage}, a wettable powder or emulsifiable concentrate having the compound of the present invention formulated in accordance with a usual formulation method, was weighed so that the active ingredient would be a predetermined amount, and diluted with water in an amount of 500 L/ha. To the diluted solution, 0.1% (v/v) of an agricultural spreader was added. The herbicide adjusted was applied by a small size sprayer for foliage treatment. On the 20th to 23rd day after the application of the herbicide, the growth of the respective plants was visually observed, and the herbicidal effects were evaluated by growth controlling degrees (%) ranging from 0 (equivalent to the untreated control) to 100 (complete kill), whereby the results shown in Table 5, were obtained. Compound Nos. in Table 5 correspond to Compound Nos. in Table 1 and 2 given hereinbefore.

[12] = test system: crabgrass (Digitaria sanguinalis L.), DIGSA; test: Test Example 2 post-emergence (foliage treatment) herbicidal activity, DIGSA; settings: 63 g a.i./ha
Excerpt: as §2

[13] = test system: green foxtail (Setaria viridis L.), SETVI; test: Test Example 2 post-emergence (foliage treatment) herbicidal activity, SETVI; settings: 63 g a.i./ha
Excerpt: as §2

[14] = test system: prickly sida (Sida spinosa L.), SIDSP; test: Test Example 2 post-emergence (foliage treatment) herbicidal activity, SIDSP; settings: 63 g a.i./ha
Excerpt: as §2

[15] = test system: velvetleaf (Abutilon theophrasti), ABUTH; test: Test Example 2 post-emergence (foliage treatment) herbicidal activity, ABUTH; settings: 63 g a.i./ha
Excerpt: as §2

[16] = test system: rice (Oryza sativa L.), ORYSA; test: Test Example 2 post-emergence (foliage treatment) herbicidal activity, ORYSA; settings: 63 g a.i./ha
Excerpt: as §2

[17] = test system: wheat (Triticum aestivum L.), TRZAX; test: Test Example 2 post-emergence (foliage treatment) herbicidal activity, TRZAX; settings: 63 g a.i./ha
Excerpt: as §2

[18] = test system: corn (Zea mays L.), ZEAMX; test: Test Example 2 post-emergence (foliage treatment) herbicidal activity, ZEAMX; settings: 63 g a.i./ha
Excerpt: as §2

[19] = test system: soybean (Glycine max Merr.), GLXMA; test: Test Example 2 post-emergence (foliage treatment) herbicidal activity, GLXMA; settings: 63 g a.i./ha
Excerpt: as §2

Structure (SMILES) | Pre-emergence Herbicidal Activity ECHCG (growth controlling degree) [1] | Pre-emergence Herbicidal Activity DIGSP (growth controlling degree) [2] | Pre-emergence Herbicidal Activity SETVI (growth controlling degree) [3] | Pre-emergence Herbicidal Activity AMARE (growth controlling degree) [4] | Pre-emergence Herbicidal Activity SIDSP (growth controlling degree) [5] | Pre-emergence Herbicidal Activity ABUTH (growth controlling degree) [6] | Pre-emergence Herbicidal Activity ORYSA (growth controlling degree) [7] | Pre-emergence Herbicidal Activity TRZAX (growth controlling degree) [8] | Pre-emergence Herbicidal Activity ZEAMX (growth controlling degree) [9] | Pre-emergence Herbicidal Activity GLXMA (growth controlling degree) [10] | growth controlling degree, ECHCO [11] | growth controlling degree, DIGSP [12] | growth controlling degree, SETVI [13] | growth controlling degree, SIDSP [14] | growth controlling degree, ABUTH [15] | growth controlling degree, ORYSA [16] | growth controlling degree, TRZAX [17] | growth controlling degree, ZEAMX [18] | growth controlling degree, GLXMA [19]
COc1c(Cl)cc(F)c(-c2nn(C)c(OC(F)F)c2Cl)c1NC(=O)C=Cc1ccc(F)cc1 [Compound 1-258] | 10% | 70% | 30% | 100% | 70% | 70% | 40% | 0% | 0% | 0% | 60% | 40% | 60% | 100% | 100% | 40% | 10% | 10% | 20%
COc1c(Cl)cc(F)c(-c2nn(C)c(OC(F)F)c2Cl)c1NC(=O)C=Cc1cccc(F)c1 [Compound 1-257] | 30% | 10% | 10% | 100% | 60% | 10% | 20% | 0% | 0% | 0% | 60% | 50% | 70% | 100% | 100% | 40% | 50% | 30% | 40%
COCCC(=O)Nc1c(OC)c(Cl)cc(F)c1-c1nn(C)c(OC(F)F)c1Cl [Compound 1-40] | 100% | 100% | 100% | 100% | 100% | 100% | 80% | 60% | 60% | 30% | 100% | 80% | 100% | 100% | 100% | 100% | 50% | 70% | 95%
